Assay: Stability of NVS-A in mixtures with various compounds, 50° C./75% RH, 4 weeks, HPLC assay
Format: physicochemical
Settings: vial
Protocol: The following Example illustrates the stability of the hemifumarate salt of 1-{4-[1-(4-cyclohexyl-3-trifluoromethyl-benzyloxyimino)-ethyl]-2-ethyl-benzyl}-azetidine-3-carboxylic acid in the presence of various compounds. Mixtures of this API with various compounds were exposed in a sealed vial to conditions of 50° C. temperature and 75% relative humidity for 4 weeks. After 4 weeks, the API degradation and sum of degradation products were assayed.
Assay method: HPLC using agilent […] and a Phenomenex Gemini C18 column. UV detection at 260 nm was used. The mobile phase used was a gradient water-acetonitrile containing 0.2% (v/v) formic acid and 10% (v/v) Triethylamine.

- Assay (%)*: 100.2%
- Sum of unknown peaks (%)*: 1.86%
Compound: CCc1cc(C(C)=NOCc2ccc(C3CCCCC3)c(C(F)(F)F)c2)ccc1CN1CC(C(=O)O)C1 [NVS-A, 1-{4-[1-(4-cyclohexyl-3-trifluoromethyl-benzyloxyimino)-ethyl]-2-ethyl-benzyl}-azetidine-3-carboxylic acid]
